From US5990170A, “Therapeutic use of mono and bicarboxylic acid amides active at the peripheral cannabinoid receptor” (Lifegroup S.p.A., priority 1994, dated 1999)

Test system: RBL-2H3 cells
Experiment: Inhibition of 3H-serotonin release induced by ADNP/DNP-HSA immunogenic stimulation in RBL-2H3 cells
Type: cell-based, rat
Settings: Rattus norvegicus, RBL-2H3, read-out: EC50, concentration inhibiting by 50% the net release of 3H serotonin, 0.2% DMSO; 15 minutes release period (Table 9)

| SMILES | EC50 [µM] |
| --- | --- |
| CCCCCCCC/C=C\CCCCCCCC(=O)NCc1ccc(O)c(OC)c1 [Example 20, N-(4-hydroxy-3-methoxybenzyl)-oleoylamide] | 6.3 |
| CCCCCCCCCCCCCCCC(=O)N[C@H](C)CO [Example 30, N-palmitoyl-[R(-)-2-amino-1-propanol]] | 3.9 |

Next, values leading:

| EC50 [µM] | SMILES |
| --- | --- |
| 18 | CCCCCCCCCCCC(=O)N[C@@H](C)[C@H](O)c1ccccc1 [Example 8, N-lauroyl-[(1R,2S)-(-)-norephedrine]] |
| 26 | CCCCCCCCCCCC(=O)NCCc1ccc(O)cc1 [Example 11, N-(p-hydroxyphenylethyl)-lauroylamide] |
| 1.5 | CCCCCCCCCCCCCCCC(=O)NCc1ccc(O)c(OC)c1 [Example 21, N-(4-hydroxy-3-methoxybenzyl)-palmitoylamide] |
| 30 | CCCCCCCCCCCC(=O)N[C@H](C)[C@@H](O)c1ccccc1 [Example 6, N-lauroyl-[(1S,2R)-(+)-norephedrine]] |
| 6.3 | CCCCCCCCCCCCCCCC(=O)NCCOC [Example 35, N-(2-methoxy-ethyl)-palmitoylamide] |
| 4.7 | CCCCCCCCCCCCCCCC(=O)NC[C@H](C)O [Example 33, N-palmitoyl-[S(+)-1-amino-2-propanol]] |

Same assay, conditions: Rattus norvegicus, RBL-2H3, read-out: EC50, concentration inhibiting by 50% the net release of 3H serotonin, 1% DMSO; 15 minutes release period (Table 9)

| EC50 [µM] | SMILES |
| --- | --- |
| 15 | CCCCCCCCCCCCCCCCCC(=O)N1CCOCC1 [Example 37, N-stearoyl-morpholine] |
| 8.8 | CCCCCCCCCCCC(=O)N[C@H](C)[C@@H](O)c1ccccc1 [Example 6, N-lauroyl-[(1S,2R)-(+)-norephedrine]] |
| 9.2 | CCCCCCCCCCCCCCCC(=O)NCCOC [Example 35, N-(2-methoxy-ethyl)-palmitoylamide] |

Test system: not listed separately
Experiment: Solubility in water and organic solvents
Settings: dmso, organic solvent or mixture

| SMILES | solubility [µg/mL] |
| --- | --- |
| CCCCCCCCCCCCCCCC(=O)NCCOP(=O)(O)OCC(O)CO (stereo not shown) [Example 16, N-palmitoylethanolamine glycerophosphate] | > 10000 |
| CCCCCCCC/C=C\CCCCCCCC(=O)NCc1ccc(O)c(OC)c1 [Example 20, N-(4-hydroxy-3-methoxybenzyl)-oleoylamide] | > 10000 |
| CCCCCCCCCCCCCCCC(=O)N[C@H](C)CO [Example 30, N-palmitoyl-[R(-)-2-amino-1-propanol]] | > 5000 |
| O=C(/C=C/CCCCCCCCC(=O)NCCCCO)NCCCCO [Example 17, N,N'-bis(4-hydroxybutyl)-trans-2-dodecendiamide] | > 5000 |
| O=C(/C=C/CCCCCCCCC(=O)N1CCOCC1)N1CCOCC1 [Example 38, 1,10-bis-morpholinylcarbonyl-trans-1-decene] | > 10000 |

Continued, values first:

| solubility [µg/mL] | SMILES |
| --- | --- |
| > 10000 | CCCCCCCCCCCC(=O)N[C@@H](C)[C@H](O)c1ccccc1 [Example 8, N-lauroyl-[(1R,2S)-(-)-norephedrine]] |
| > 10000 | CCCCCCCCCCCC(=O)NCCc1ccc(O)cc1 [Example 11, N-(p-hydroxyphenylethyl)-lauroylamide] |
| > 5000 | CCCCCCCCCCCCCCCC(=O)NC(CO)CO [Example 15, 2-(N-palmitoylamino)-1,3-propandiol] |
| > 10000 | CCCCCCCCCCCCCCCC(=O)N(C)CCO [Example 14, N-methyl-N-(2-hydroxyethyl)-palmitoylamide] |
| > 10000 | CCCCCCCCCCCCCCCC(=O)NCc1ccc(O)c(OC)c1 [Example 21, N-(4-hydroxy-3-methoxybenzyl)-palmitoylamide] |
| > 10000 | CCCCCCCCCCCC(=O)N[C@H](C)[C@@H](O)c1ccccc1 [Example 6, N-lauroyl-[(1S,2R)-(+)-norephedrine]] |

Same assay, conditions: ethanol, organic solvent or mixture

| SMILES | solubility [µg/mL] |
| --- | --- |
| CCCCCCCC/C=C\CCCCCCCC(=O)NCc1ccc(O)c(OC)c1 [Example 20, N-(4-hydroxy-3-methoxybenzyl)-oleoylamide] | > 10000 |
| CCCCCCCCCCCCCCCC(=O)N[C@H](C)CO [Example 30, N-palmitoyl-[R(-)-2-amino-1-propanol]] | > 10000 |
| O=C(/C=C/CCCCCCCCC(=O)N1CCOCC1)N1CCOCC1 [Example 38, 1,10-bis-morpholinylcarbonyl-trans-1-decene] | > 10000 |

The next lines start with the values.

| solubility [µg/mL] | SMILES |
| --- | --- |
| > 10000 | CCCCCCCCCCCC(=O)N[C@@H](C)[C@H](O)c1ccccc1 [Example 8, N-lauroyl-[(1R,2S)-(-)-norephedrine]] |
| > 10000 | CCCCCCCCCCCC(=O)NCCc1ccc(O)cc1 [Example 11, N-(p-hydroxyphenylethyl)-lauroylamide] |
| > 5000 | CCCCCCCCCCCCCCCC(=O)NC(CO)CO [Example 15, 2-(N-palmitoylamino)-1,3-propandiol] |
| > 10000 | CCCCCCCCCCCCCCCC(=O)NCc1ccc(O)c(OC)c1 [Example 21, N-(4-hydroxy-3-methoxybenzyl)-palmitoylamide] |
| > 10000 | CCCCCCCCCCCC(=O)N[C@H](C)[C@@H](O)c1ccccc1 [Example 6, N-lauroyl-[(1S,2R)-(+)-norephedrine]] |
| > 10000 | CCCCCCCCCCCCCCCC(=O)NCCOC [Example 35, N-(2-methoxy-ethyl)-palmitoylamide] |
| > 5000 | CCCCCCCCCCCCCCCC(=O)NC[C@H](C)O [Example 33, N-palmitoyl-[S(+)-1-amino-2-propanol]] |

Same assay, conditions: hot ethanol, organic solvent or mixture

| solubility [µg/mL] | SMILES |
| --- | --- |
| > 10000 | CCCCCCCCCCCCCCCCCC(=O)N1CCOCC1 [Example 37, N-stearoyl-morpholine] |

Same assay, conditions: n-octanol, organic solvent or mixture

| solubility [µg/mL] | SMILES |
| --- | --- |
| > 10000 | CCCCCCCCCCCCCCCC(=O)N(C)CCO [Example 14, N-methyl-N-(2-hydroxyethyl)-palmitoylamide] |

Same assay, conditions: phosphate buffer, pH 7.4, aqueous buffer

| SMILES | solubility [µg/mL] |
| --- | --- |
| CCCCCCCCCCCCCCCC(=O)NCCOP(=O)(O)OCC(O)CO (stereo not shown) [Example 16, N-palmitoylethanolamine glycerophosphate] | > 1000 |

Same assay, conditions: result in words

| SMILES | solubility in water |
| --- | --- |
| CCCCCCCCCCCCCCCC(=O)NCCOP(=O)(O)OCC(O)CO (stereo not shown) [Example 16, N-palmitoylethanolamine glycerophosphate] | scarcely soluble |
| CCCCCCCCCCCCCCCCCC(=O)N1CCOCC1 [Example 37, N-stearoyl-morpholine] | scarcely soluble |
| CCCCCCCC/C=C\CCCCCCCC(=O)NCc1ccc(O)c(OC)c1 [Example 20, N-(4-hydroxy-3-methoxybenzyl)-oleoylamide] | scarcely soluble |
| CCCCCCCCCCCCCCCC(=O)N[C@H](C)CO [Example 30, N-palmitoyl-[R(-)-2-amino-1-propanol]] | scarcely soluble |
| O=C(/C=C/CCCCCCCCC(=O)NCCCCO)NCCCCO [Example 17, N,N'-bis(4-hydroxybutyl)-trans-2-dodecendiamide] | scarcely soluble |
| O=C(/C=C/CCCCCCCCC(=O)N1CCOCC1)N1CCOCC1 [Example 38, 1,10-bis-morpholinylcarbonyl-trans-1-decene] | scarcely soluble |

Now from value to compound:

| solubility in water | SMILES |
| --- | --- |
| scarcely soluble | CCCCCCCCCCCC(=O)N[C@@H](C)[C@H](O)c1ccccc1 [Example 8, N-lauroyl-[(1R,2S)-(-)-norephedrine]] |
| scarcely soluble | CCCCCCCCCCCC(=O)NCCc1ccc(O)cc1 [Example 11, N-(p-hydroxyphenylethyl)-lauroylamide] |
| scarcely soluble | CCCCCCCCCCCCCCCC(=O)NC(CO)CO [Example 15, 2-(N-palmitoylamino)-1,3-propandiol] |
| scarcely soluble | CCCCCCCCCCCCCCCC(=O)N(C)CCO [Example 14, N-methyl-N-(2-hydroxyethyl)-palmitoylamide] |
| scarcely soluble | CCCCCCCCCCCCCCCC(=O)NCc1ccc(O)c(OC)c1 [Example 21, N-(4-hydroxy-3-methoxybenzyl)-palmitoylamide] |
| scarcely soluble | CCCCCCCCCCCC(=O)N[C@H](C)[C@@H](O)c1ccccc1 [Example 6, N-lauroyl-[(1S,2R)-(+)-norephedrine]] |
| scarcely soluble | CCCCCCCCCCCCCCCC(=O)NCCOC [Example 35, N-(2-methoxy-ethyl)-palmitoylamide] |
| scarcely soluble | CCCCCCCCCCCCCCCC(=O)NC[C@H](C)O [Example 33, N-palmitoyl-[S(+)-1-amino-2-propanol]] |
